Laboratory results as given in US12433908B2, “Use of nicotinamide riboside, nicotinic acid riboside, and nicotinamide mononucleotide, reduced nicotinyl compounds, and nicotinoyl compound derivatives in infant formula for healthy development” (ChromaDex, Inc., priority 2016, dated 2025).

Columns and labels:
[1] = Stability of NR in liquid (water, milk); type: physicochemical
[2] = Body weight of early-weaned piglets given NR solution; type: in vivo, piglets (Yorkshire/Hampshire crossbred)
Source text: Sixteen (n=16) Yorkshire/Hampshire crossbred piglets were obtained from the University of California, Davis Swine Teaching and Research Center and received on lactation day (“LD”) 14. Prior to arrive, the piglets were processed by the suppler between 1-3 days of age by administration of iron and an antibiotic (Excede for swine) as is common practice at the University of California, Davis Swine Facility. It is not common practice at the University of California, Davis Swine Facility to give a second dose of iron and antibiotics unless it becomes necessary.
The piglets were from two litters (litters 15 and 17), weaned at 17 days of age, and randomly placed into one of two groups balanced for litter, sex, and weight. The animals were not acclimated to the facility at arrival and were subsequently acclimated to the test diet administration system. The piglets were weaned into a temperature-controlled room (approximately 27-29° C.) that contained 10 adjacent pens. The piglets were group-housed in the nursery room at the Swine Facility, which is an enclosed room with access restricted to trained personnel. The two groups were separated by one pen containing piglets of similar age.
Each morning enough nicotinamide riboside (NR, I) in water solution was prepared for that day's dose administration according to the dose preparation protocol. At least 5 mL of prepared dose was reserved and immediately frozen after preparation each day for analysis of nicotinamide riboside (NR, I) for the purpose of confirming stability of the dose material. The doses were stored at refrigeration temperature while not in use. Nicotinamide riboside (NR, I) was dosed once per day in the morning and at the same time each day. Piglets in the control group received the same volume of plain water and were dosed on the same schedule.
The daily amount of nicotinamide riboside (NR, I) approximated the dose (33 mg/kg) used in human investigations of efficacy in areas of mitochondrial dysfunction converted to piglet equivalent dose using the body surface area method. See A. B. Nair & S. Jacob, A simple practice guide for dose conversion between animals and human, 7 J. BASIC CLIN. PHARMA 27 (2016), incorporated by reference herein in its entirety.
Starting on Day 1, animals in the nicotinamide riboside (NR, I) group were dosed once daily (in the morning) with 277 mg nicotinamide riboside (NR, I) per pig resuspended in water for seven days. After one week, animals were dosed once daily with 342 mg nicotinamide riboside (NR, I) per pig delivered in 2.5 mL for seven days. For Days 1 and 2, the nicotinamide riboside (NR, I) solution was prepared by resuspending 2770 mg nicotinamide riboside (NR, I) in 50 mL water, and 5 mL of this solution was delivered to each pig by squirting it into the back of the mouth using a 10 mL syringe with a piece of tubing attached to the end. To reduce the volume to more efficiently deliver the nicotinamide riboside (NR, I) solution, the 2770 mg was resuspended in 25 mL water and 2.5 mL of the solution was squirted into the back of the mouth of each pig using a 3 mL syringe for Days 3-7. […]
All animals were weighed at weaning (baseline) and after one and two weeks of nicotinamide riboside (NR, I) supplementation. Fecal and activity scores were recorded daily using the scales listed below. Weights and fecal scores were analyzed using a two-factor repeated measures ANOVA (mixed-model ANOVA) with p values<0.05 considered significant. […]

[3] = Fecal and activity scores of piglets given NR solution; type: in vivo, piglets (Yorkshire/Hampshire crossbred); settings: for Activity Score: scale 4=alert, attentive to 1=very lethargic; for Fecal Score: scale 4=normal (solid) to 1=severe diarrhea (liquid)
Source text: Sixteen (n=16) Yorkshire/Hampshire crossbred piglets were obtained from the University of California, Davis Swine Teaching and Research Center and received on lactation day (“LD”) 14. Prior to arrive, the piglets were processed by the suppler between 1-3 days of age by administration of iron and an antibiotic ([…] for swine) as is common practice at the University of California, Davis Swine Facility. It is not common practice at the University of California, Davis Swine Facility to give a second dose of iron and antibiotics unless it becomes necessary. The piglets were from two litters (litters 15 and 17), weaned at 17 days of age, and randomly placed into one of two groups balanced for litter, sex, and weight. The animals were not acclimated to the facility at arrival and were subsequently acclimated to the test diet administration system. The piglets were weaned into a temperature-controlled room (approximately 27-29° C.) that contained 10 adjacent pens. The piglets were group-housed in the nursery room at the Swine Facility, which is an enclosed room with access restricted to trained personnel. The two groups were separated by one pen containing piglets of similar age. Each morning enough nicotinamide riboside (NR, I) in water solution was prepared for that day's dose administration according to the dose preparation protocol. At least 5 mL of prepared dose was reserved and immediately frozen after preparation each day for analysis of nicotinamide riboside (NR, I) for the purpose of confirming stability of the dose material. The doses were stored at refrigeration temperature while not in use. Nicotinamide riboside (NR, I) was dosed once per day in the morning and at the same time each day. Piglets in the control group received the same volume of plain water and were dosed on the same schedule. Starting on Day 1, animals in the nicotinamide riboside (NR, I) group were dosed once daily (in the morning) with 277 mg nicotinamide riboside (NR, I) per pig resuspended in water for seven days. After one week, animals were dosed once daily with 342 mg nicotinamide riboside (NR, I) per pig delivered in 2.5 mL for seven days. For Days 1 and 2, the nicotinamide riboside (NR, I) solution was prepared by resuspending 2770 mg nicotinamide riboside (NR, I) in 50 mL water, and 5 mL of this solution was delivered to each pig by squirting it into the back of the mouth using a 10 mL syringe with a piece of tubing attached to the end. To reduce the volume to more efficiently deliver the nicotinamide riboside (NR, I) solution, the 2770 mg was resuspended in 25 mL water and 2.5 mL of the solution was squirted into the back of the mouth of each pig using a 3 mL syringe for Days 3-7. For Days 8-14, 3420 mg nicotinamide riboside (NR, I) was resuspended in 25 mL water and 2.5 mL of this solution was delivered to each pig. Each day prior to dosing, 2.5 mL of the nicotinamide riboside (NR, I) (5 mL on Days 1 and 2) were placed into a separate tube and frozen. All animals were weighed at weaning (baseline) and after one and two weeks of nicotinamide riboside (NR, I) supplementation. Fecal and activity scores were recorded daily using the scales listed below. Weights and fecal scores were analyzed using a two-factor repeated measures ANOVA (mixed-model ANOVA) with p values<0.05 considered significant. The fecal consistency scale used is as follows: 4=normal (solid); 3=soft feces (semi-solid); 2=mild diarrhea (semi liquid); 1=severe diarrhea (liquid).

[4] = Wk 1, 277 mg/pig once daily oral
[5] = Wk 2, 342 mg/pig once daily oral Days 8-14

Structure (SMILES): NC(=O)c1ccc[n+]([C@@H]2O[C@H](CO)[C@@H](O)[C@H]2O)c1 [NR, Nicotinamide riboside]
- stability in milk ([1]; cow's milk and human breast milk): stable in milk
- stability in water ([1]; in water): unstable over time
- health, nutritional quality, normal growth of piglets weaned 7 days early ([2]; 2-week feeding of NR): did not negatively impact the health, nutritional quality, or normal growth
- Weight ([2]; Baseline, before dosing): 7.77 ± 1.33 kg
- body weight, NR vs. control ([2]; Week 1 or Week 2 of treatment): no differences in body weight
- Weight [2, 4]: 8.33 ± 1.56 kg
- Weight [2, 5]: 9.39 ± 1.61 kg
- fecal scores, NR vs. control ([3]; 2-week intervention): not statistically different
- Activity Score ([3]; Baseline, before dosing): 4.0
- Fecal Score ([3]; Baseline, before dosing): 3.78 ± 0.39
- Activity Score [3, 4]: 4.0
- Fecal Score [3, 4]: 2.93 ± 0.67
- Activity Score [3, 5]: 4.0
- Fecal Score [3, 5]: 2.90 ± 0.60
